Source: patent US20230075765A1, “PYRROLO[2,3-D]PYRIMIDINE DERIVATIVE TARGETING EGFR MUTATION, AS WELL AS THE PREPARATIVE METHOD AND THE USE THEREOF” (WEST CHINA HOSPITAL, SICHUAN UNIVERSITY, priority 2020, published 2023)

Experiments:
[1] = target: T1, EGFR (T790M, C797S, L858R) (Homo sapiens, UniProt P00533, C797S/L858R/T790M); assay: Kinase inhibition, Lantha Screen assay; type: biochemical; details: for Single-concentration inhibitory activity against EGFR (T790M, C7975, L858R), Mean (100% inhibition): compound concentration 2 nM; for IC50: read-out: Inhibitory activity (IC50) on EGFR (T790M, C797S, L858R)
T1 construct: purchased BPS 40351
Procedure: According to relevant literature, the inhibitory activity of five kinases (EGFR, EGFR-LT, EGFR-LTC, BTK, JAK3) were tested. Note: EGFR, EGFR-LT, EGFR-LTC: wild-type EGFR, L858R/T790M (EGFR-LT), or L858R/T790M/C797S (EGFR-LTC) mutant protein. […]
1) The initial detection concentration of the compound is 10 μM, and the compound was prepared into a 100-fold concentration, namely 1000 μM. 95 μl of 100% DMSO was added to the first well of a 96-well plate, and then 10 μl of 10 mM compound solution was added to prepare a 1000 μM compound solution. 50 μl of […] compound solution prepared above was transferred to a 384-well Echo plate;
2) 50 μl of 100% DMSO was transferred to two empty wells as a control without compound and enzyme;
3) Echo 550 was used to transfer 100 nl of compound solution to a 384-well test plate. 2.3 Kinase reaction and termination
1) EGFR (T790M, C797S, L858R) was added to 1× kinase buffer to form 2× kinase solution;
2) 5 μl of the above 2× kinase solution was transferred to a 384-well reaction plate, and 1× kinase buffer was added to the negative control well, then incubated for 10 min at room temperature;
3) Fluorescein-PolyGT and ATP were added to 1× kinase buffer to form a 2× substrate solution;
4) 5 μl of the above 2× substrate solution was transferred to a 384-well reaction plate;
5) The 384-well reaction plate was incubated at room temperature for 30 min;
6) 2× mixed solution of antibody and EDTA was prepared, of which […] was added to the 384-well reaction plate to stop the reaction;
7) The plate was left at room temperature for 60 min.
Percent inhibition=(max−Lantha signal)/(max−min)*100
“min” is the reading of the control well without enzyme; “max” is the reading of DMSO control well. 3) The data were imported into MS Excel, and IC50 results were subjected to curve fitting by using XLFit excel add-in version 5.4.0.8:
Fitting formula: Y=Bottom+(Top−Bottom)/(1+(IC50/X)^HillSlope)

[2] = tested on: ERK1/2; assay: Western blot, inhibition of ERK1/2 phosphorylation; type: cell-based, human
Procedure: (1) Various cell lines in the logarithmic growth phase were evenly inoculated in a 6-well plate at a concentration of 3×10^6 cells/well, respectively, and cultured for 24 h;
(2) The culture supernatant was removed, and then the cells were washed twice with PBS, and treated with serum-free medium for 1 hour;
(3) The culture supernatant was removed, and each compound at different concentrations was added, then the cells were treated for 2 h;
(4) The supernatant was removed, and the cells were washed twice with pre-cooled PBS, then the supernatant was discarded;
(5) 100 μl of cell lysate was added to each well, and cells were lysed on ice for 10 min. The cells were scraped with a cell scraper. The cell lysate was transferred to a pre-cooled 1.5 ml EP tube, sonicated, and centrifuged under 12000 rpm at 4° C. for 10 min. The supernatant was carefully aspirated and stored at −20° C.
(6) To the aliquoted total cell protein, was added 5 μl of 5× loading buffer, and the protein was denatured in a water bath at 100° C. for 10 min, then the sample was centrifugated and loaded;
(1) The successfully transferred membrane was placed in the 1× blocking solution prepared, and kept in the blocking solution at room temperature for about 1 h;
(2) EGFR protein and its downstream proteins were diluted with 1× primary antibody diluent, and incubated overnight at 4° C., using […] antibody as an internal reference;
(3) The membrane was washed 3 times with 1×TBST, 5 min for each time, and then washed with 1× secondary antibody dilution, followed by incubation for 1 h at room temperature. Finally, the membrane was washed 3 times with 1×TBST, 15 min for each time.
(2) The mixed ECL reagent was added to PVDF membrane (1 ml/10 cm^2), and subjected to chemiluminescence to obtain a band;
Western Blot method was used to analyze the influence of each compound on the expression of pathway proteins.

[3] = tested on: normal cells and different lung cancer cell lines; assay: Inhibition of cell proliferation, CCK8 method, comparison in words over the whole cell panel; type: cell-based, human; details: BEAS-2B, HBE, H460, A549, H1975, HCC827; CCK8, 48 h
Procedure: Compounds 1-9 of the present invention were respectively weighed and dissolved in 1 ml of dimethyl sulfoxide (DMSO), to prepare a 10 mM drug solution, which was stored in a refrigerator at −20° C. in the dark after packaging. The stock solution was diluted with the corresponding culture medium to the required concentration just before the experiment.
HBE cells and BEAS-2B cells are normal lung bronchial epithelial cell lines, and both cells were cultured in DMEM high glucose medium (supplemented with 10% fetal bovine serum and 1% double antibody) to the logarithmic growth phase; H460 cells, A549 cells, H1975 cells and HCC827 cells are lung cancer cell lines, and all of them were cultured in RPMI1640 medium (supplemented with 10% fetal bovine serum and 1% double antibody) to the logarithmic growth phase. Among them, H1975 cells and HCC827 cells are EGFR mutant cells.
When the cells were cultured to 90% of the growth density, the cells were digested with 0.25% trypsin to prepare a single cell suspension. The cells were counted, and then seeded in a 96-well plate at a density of 5000 cells/well, 100 μl for each well. The culture plate was moved into a CO2 incubator and incubated for 24 h at 37° C. and 5% CO2. Compounds at different concentrations were added to each well, 5 replicate wells for each concentration, and the cells were treated with the compounds for 48 hours. CCK8 detection reagent was added to each well according to the operation manual, and then the plate was further incubated for 1 h before terminating the culture. 450 nm wavelength was chosen, and the absorbance value of each well was adjusted on the microplate ELISA analyzer. The result was recorded. […] was taken as the horizontal axis, and absorbance as the vertical axis to plot a curve. The half inhibitory concentration (IC50) was calculated by Bliss method. Each experiment was repeated at least 3 times.
Normal lung cell lines and different lung cancer cell lines were selected for experiments. Amongst, the compound with high anti-cancer activity was screened, whose anti-tumor activity was further studied.

T1 sequence (P00533 25-1210 T790M/C797S/L858R): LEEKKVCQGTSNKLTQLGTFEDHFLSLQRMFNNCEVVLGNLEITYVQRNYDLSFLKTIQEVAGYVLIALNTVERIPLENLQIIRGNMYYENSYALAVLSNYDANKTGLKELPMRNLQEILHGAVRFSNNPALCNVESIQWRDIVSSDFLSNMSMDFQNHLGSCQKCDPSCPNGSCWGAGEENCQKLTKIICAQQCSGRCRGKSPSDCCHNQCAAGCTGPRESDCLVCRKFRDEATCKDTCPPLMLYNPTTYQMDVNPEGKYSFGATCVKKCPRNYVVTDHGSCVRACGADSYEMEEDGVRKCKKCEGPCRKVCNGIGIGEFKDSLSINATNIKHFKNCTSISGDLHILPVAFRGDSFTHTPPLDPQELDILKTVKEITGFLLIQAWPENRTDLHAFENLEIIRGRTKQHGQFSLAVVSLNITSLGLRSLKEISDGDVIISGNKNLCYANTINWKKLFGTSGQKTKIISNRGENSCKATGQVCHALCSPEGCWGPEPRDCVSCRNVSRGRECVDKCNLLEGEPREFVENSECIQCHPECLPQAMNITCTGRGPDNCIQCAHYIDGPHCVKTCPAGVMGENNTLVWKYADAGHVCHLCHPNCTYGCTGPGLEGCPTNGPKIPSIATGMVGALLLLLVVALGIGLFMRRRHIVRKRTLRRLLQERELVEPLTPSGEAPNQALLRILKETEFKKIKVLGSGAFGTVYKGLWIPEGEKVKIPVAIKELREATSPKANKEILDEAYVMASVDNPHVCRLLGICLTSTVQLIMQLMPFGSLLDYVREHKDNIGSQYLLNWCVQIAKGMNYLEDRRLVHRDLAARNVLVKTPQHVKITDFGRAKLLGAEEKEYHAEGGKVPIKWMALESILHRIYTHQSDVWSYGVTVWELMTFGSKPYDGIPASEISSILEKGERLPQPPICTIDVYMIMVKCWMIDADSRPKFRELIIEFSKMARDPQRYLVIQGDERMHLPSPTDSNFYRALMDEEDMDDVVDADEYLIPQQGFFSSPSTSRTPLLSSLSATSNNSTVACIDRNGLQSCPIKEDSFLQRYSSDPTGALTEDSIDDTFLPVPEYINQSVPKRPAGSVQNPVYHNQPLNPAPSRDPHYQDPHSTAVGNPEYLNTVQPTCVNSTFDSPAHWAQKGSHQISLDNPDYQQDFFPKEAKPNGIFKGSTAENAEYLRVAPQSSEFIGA

Row | Single-concentration inhibitory activity against EGFR (T790M, C7975, L858R), Mean (100% inhibition) [1] [% inhibition] | IC50 [1] [nM] | Structure (SMILES) | inhibition of phosphorylation of ERK1/2 ([2]; H1975 cells) | inhibition of phosphorylation of ERK1/2 ([2]; wild-type EGFR cells) | inhibitory effect on different cell lines (in words) [3]
1 | 8.4 | – | C=CC(=O)Nc1cccc(Oc2nc(Nc3ccc(N4CCN(C)CC4)c([N+](=O)[O-])c3)nc3c2ccn3COC(=O)C(C)(C)C)c1 [Compound 7] | – | – | –
2 | 5.8 | 2220 | C=CC(=O)Nc1cccc(Oc2nc(Nc3ccc(N4CCN(C)CC4)c([N+](=O)[O-])c3)nc3[nH]ccc23)c1 [Compound 5] | inhibited | much weaker inhibitory effects | –
3 | 7.8 | 1410 | C=CC(=O)Nc1cccc(Oc2nc(Nc3ccc(N4CCN(C)CC4)c(OC)c3)nc3[nH]ccc23)c1 [Compound 4] | – | – | –
4 | 3.6 | – | C=CC(=O)Nc1cccc(Oc2nc(Nc3ccc(N4CCN(C)CC4)c(N)c3)nc3c2ccn3COC(=O)C(C)(C)C)c1 [Compound 8] | – | – | relatively poor inhibitory effects on other cell lines
5 | 2.1 | – | C=CC(=O)Nc1cccc(Oc2nc(Nc3ccc(N4CCN(C)CC4)c(I)c3)nc3c2ccn3COC(=O)C(C)(C)C)c1 [Compound 9] | – | – | poorer than that of other compounds
6 | 9.2 | – | C=CC(=O)Nc1cccc(Oc2nc(Nc3ccc(N4CCN(C)CC4)c(Cl)c3)nc3[nH]ccc23)c1 [Compound 2] | – | – | basically the same as that of the positive control
7 | 8.0 | 464 | C=CC(=O)Nc1cccc(Oc2nc(Nc3ccc(N4CCN(C)CC4)c(N)c3)nc3[nH]ccc23)c1 [Compound 6] | inhibited | much weaker inhibitory effects | –
